Activity calls are given as the source filed them. No cut-off for these calls is given here.
Key:
[1] = tested on: HeLa; experiment: Effect on HIF1alpha mRNA expression in human HeLa cells incubated for 2 hrs under hypoxic conditions by RT-PCR; format: functional, cell-based
[2] = tested on: HeLa; experiment: Effect on HIF1beta protein level in human HeLa cells incubated for 4 hrs under hypoxic conditions by Western blot
[3] = molecular target: T1, Hypoxia-inducible factor 1-alpha (Homo sapiens, UniProt Q16665); experiment: Inhibition of hypoxia-induced HIF1alpha transcriptional activity in HEK293 cells incubated for 16 hrs by hypoxia response element-driven luciferase reporter gene assay; format: cell-based
Target sequence in this assay (Q16665 whole entry): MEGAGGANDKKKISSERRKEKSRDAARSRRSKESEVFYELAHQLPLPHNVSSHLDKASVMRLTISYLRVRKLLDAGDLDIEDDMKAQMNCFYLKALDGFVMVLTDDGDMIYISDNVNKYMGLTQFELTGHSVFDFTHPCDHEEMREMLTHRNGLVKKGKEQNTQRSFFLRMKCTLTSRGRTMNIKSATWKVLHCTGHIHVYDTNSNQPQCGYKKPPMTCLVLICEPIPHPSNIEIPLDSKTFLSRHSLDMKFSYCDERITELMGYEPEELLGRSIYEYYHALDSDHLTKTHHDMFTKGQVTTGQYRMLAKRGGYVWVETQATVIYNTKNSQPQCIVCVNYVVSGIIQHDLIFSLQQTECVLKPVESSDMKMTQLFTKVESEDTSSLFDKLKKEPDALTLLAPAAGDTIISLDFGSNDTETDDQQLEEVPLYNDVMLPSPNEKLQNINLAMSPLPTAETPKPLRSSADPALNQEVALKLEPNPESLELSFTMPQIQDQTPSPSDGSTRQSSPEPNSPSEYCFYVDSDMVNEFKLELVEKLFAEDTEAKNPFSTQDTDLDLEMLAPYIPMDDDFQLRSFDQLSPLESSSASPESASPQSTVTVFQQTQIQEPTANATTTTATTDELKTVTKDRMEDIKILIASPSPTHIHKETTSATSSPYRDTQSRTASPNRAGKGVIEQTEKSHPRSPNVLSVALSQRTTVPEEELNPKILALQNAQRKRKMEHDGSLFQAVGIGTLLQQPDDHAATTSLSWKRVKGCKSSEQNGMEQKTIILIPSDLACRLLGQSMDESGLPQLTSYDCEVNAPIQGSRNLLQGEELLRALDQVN

[4] = tested on: HeLa; experiment: Inhibition of hypoxia-induced VEGF secretion in human HeLa cells incubated for 12 hrs under hypoxic conditions by ELISA; format: functional, cell-based
[5] = molecular target: T1, Hypoxia-inducible factor 1-alpha; experiment: Inhibition of HIF1alpha accumulation in human HeLa cells incubated for 4 hrs under hypoxic conditions by Western blot; format: cell-based
Target sequence in this assay (Q16665 whole entry, looked up): as the sequence (Q16665 whole entry) above

SMILES | IC50 [3] | further results
COC(=O)c1cccc(CNc2ccc(NC(=O)Nc3ccccc3)cc2)c1 | 7.21 µM | Activity [1]: inactive; Activity [2]: inactive; IC50 [4]: 15 µM; inhibition [4]: Dose-dependent effect; inhibition [5]: Dose-dependent effect
COc1cccc(CNc2ccc(NC(=O)Nc3ccccc3)cc2)c1 | 52.1 µM | –
COc1ccc(CNc2ccc(NC(=O)Nc3ccccc3)cc2)cc1 | 23 µM | –
COc1cccc(CNc2ccc(NC(=O)Nc3ccccc3)cc2)c1OC | 8.62 µM | –
O=C(Nc1ccccc1)Nc1ccc(NCc2ccc(O)cc2)cc1 | 35.5 µM | –
COc1cc(CNc2ccc(NC(=O)Nc3ccccc3)cc2)cc(OC)c1 | 18.7 µM | –
COC(=O)c1ccc(CNc2ccc(NC(=O)Nc3ccccc3)cc2)cc1 | > 100 µM | –
O=C(Nc1ccccc1)Nc1ccc(NCc2ccccc2O)cc1 | 32.7 µM | –
COC(=O)c1ccccc1CNc1ccc(NC(=O)Nc2ccccc2)cc1 | 32.5 µM | –
O=C(Nc1ccccc1)Nc1ccc(NCc2cccc(O)c2)cc1 | 69.9 µM | –
COc1cccc(OC)c1CNc1ccc(NC(=O)Nc2ccccc2)cc1 | 39.1 µM | –
COC(=O)c1cc(CNc2ccc(NC(=O)Nc3ccccc3)cc2)cc(C(=O)OC)c1 | 15.1 µM | –
COC(=O)c1ccc(OC)c(CNc2ccc(NC(=O)Nc3ccccc3)cc2)c1 | 22.1 µM | –
COc1ccc(OC)c(CNc2ccc(NC(=O)Nc3ccccc3)cc2)c1 | 29.6 µM | –
O=C(Nc1ccccc1)Nc1ccc(NCc2ccc(C(=O)O)cc2)cc1 | > 100 µM | –
COc1ccccc1CNc1ccc(NC(=O)Nc2ccccc2)cc1 | 17.4 µM | –
O=C(Nc1ccccc1)Nc1ccc(NCc2cccc(C(=O)O)c2)cc1 | 41.6 µM | –
O=C(Nc1ccccc1)Nc1ccc(NCc2ccccc2C(=O)O)cc1 | 51.7 µM | –

Reference: ChEMBL document CHEMBL1781967, “1-[4-(N-Benzylamino)phenyl]-3-phenylurea derivatives as a new class of hypoxia-inducible factor-1alpha inhibitors” (Bioorg Med Chem Lett, 2009)
